Source: patent publication EP0552379B1, “DIHYDROPYRIDINE DERIVATIVES, AND PROCESS FOR THEIR PREPARATION” (FUJISAWA PHARMACEUTICAL CO., LTD., priority 1991, dated 1993)

What was measured:
Wistar rats = assay: Hypotensive effect (mean arterial pressure, femoral artery, intravenous administration); assay type: in vivo; settings: dose 1.0 mg/kg, intravenously
Description: Three Wistar rats were used per group. Each animal was placed in a cage sized to the body after cannulation of catheters into the femoral artery and vein under ether anesthesia. Blood pressure was measured in the femoral artery by means of a pressure transducer and recorded as electrically integrated values of mean arterial pressure. Heart rate was counted from instant arterial pressure pulses by running the record paper at a faster speed periodically.
The test compound was administered intravenously through a catheter cannulated in the femoral vein more than 2 hours later the completion of the operation.

β receptor = β receptor binding (^3H-Dihydroalprenolol (DHA) binding to crude cardiac microsomal membrane); set-up: species or system SD strain rats; settings: [^3H]DHA 1nM, rat heart microsomal membrane, 25°C, 30 minutes
Description: (3) β receptor binding Test methods (a) Crude cardiac microsomal membrane preparation SD strain rats were sacrificed by decapitation. The heart was removed and homogenized in buffer (0.25M sucrose, 10mM MOPS, pH7.4) by using Polytoron (Kinematica). The homogenate was homogenized by teflon glass homogenizer. The homogenate was centrifuged (1,000g x 10 min) to remove tissue clumps and the supernatant was centrifuged (10,000g x 10 min) twice. The supernatant was centrifuged (100,000g x 60 min) to yield pellets. The pellets were resuspended in buffer (50mM Tris-HCl, pH7.4), which were referred to as crude microsomal membrane fractions. The obtained suspensions were stored at -80°C until use. (b) ^3H-Dihydroalprenolol (DHA) binding to preparative membrane Frozen crude microsomal membrane fractions were thawed. [^3H) DHA (1nM) was incubated with 50 µl of the membrane preparation at 25°C for 30 minutes in a final volume of 200 µl. At the end of the incubation period, reaction mixture was quickly filtrated over a Whatman GF/C glass filter under aspiration. The filters were washed 5 times with 3ml of the buffer (50mM Tris-HCl, pH7.4). The radioactivity was counted in 6ml of Clear-sol I in Packard scintillation counter (Packard TRI-CARB 4530).

Ki (β receptor): 507 nM
Compound: COC(=O)C1=C(C(F)(F)F)NC(C)=C(C(=O)OCCc2ccc(OCC(O)CNC(C)C)cc2)C1c1cccc([N+](=O)[O-])c1 (centres unmarked) [Dihydropyridine A, 2-{p-(2-hydroxy-3-isopropylaminopropoxy)phenyl}ethyl 1,4-dihydro-3-methoxycarbonyl-6-methyl-4-m-nitrophenyl-2-trifluoromethylpyridine-5-carboxylate]
Maximum change of blood pressure (Wistar rats): -39(%)
